According to ChEMBL document CHEMBL5523723, “G Protein-Coupled Estrogen Receptor-Mediated Anti-Inflammatory and Mucosal Healing Activity of a Trimethylpyridinol Analogue in Inflammatory Bowel Disease” (J Med Chem, 2024):
Calls of active or inactive are those of the source. The rule behind the calls is not given here.

Legend:
U-937 [1] = assay: Inhibition of TNFalpha induced adhesion of TPA treated human U-937 cells to human HT-29 cells at 1 uM pretreated with HT-29 for 1 hr followed by U-937 addition along with TNFalpha stimulation for 3 hrs by fluorescence based microplate reader assay relative to control; assay type: functional; conditions: time 4 hrs
[2] = Inhibition of IL6 induced adhesion of TPA treated human U-937 cells to human HT-29 cells at 1 uM pretreated with HT-29 for 1 hr followed by U-937 addition along with IL6 stimulation for 3 hrs by fluorescence based microplate reader assay relative to control; assay type: functional; conditions: time 4 hrs
HT-29 [3] = assay: Induction of apoptosis in human HT-29 cells assessed as early apoptotic cells at 10 uM incubated for 24 hrs by Annexin V FITC/PI staining based flow cytometry analysis ( Rvb = 0%); assay type: functional
HT-29 [4] = assay: Induction of apoptosis in human HT-29 cells assessed as early apoptotic cells at 5 uM incubated for 24 hrs by Annexin V FITC/PI staining based flow cytometry analysis ( Rvb = 0%); assay type: functional
U-937 [5] = assay: Induction of apoptosis in human U-937 cells assessed as late apoptotic cells at 1 uM incubated for 24 hrs by Annexin V FITC/PI staining based flow cytometry analysis ( Rvb = 4 +/- 0.2%); assay type: functional
HT-29 [6] = assay: Induction of apoptosis in human HT-29 cells assessed as necrotic cells at 10 uM incubated for 24 hrs by Annexin V FITC/PI staining based flow cytometry analysis ( Rvb = 0.2%); assay type: functional
HT-29 [7] = assay: Inhibition of TNFalpha induced nuclear translocation of p-STAT3 in human HT-29 cells at 10 uM pretreated with for 3 hrs followed by TNFalpha addition by Western blotting analysis; assay type: functional, cell-based
U-937 [8] = assay: Induction of apoptosis in human U-937 cells assessed as late apoptotic cells at 5 uM incubated for 24 hrs by Annexin V FITC/PI staining based flow cytometry analysis ( Rvb = 4 +/- 0.2%); assay type: functional
U-937 [9] = assay: Induction of apoptosis in human U-937 cells assessed as necrotic cells at 1 uM incubated for 24 hrs by Annexin V FITC/PI staining based flow cytometry analysis ( Rvb = 0.2 +/- 0.1%); assay type: functional
U-937 [10] = assay: Induction of apoptosis in human U-937 cells assessed as viable cells at 10 uM incubated for 24 hrs by Annexin V FITC/PI staining based flow cytometry analysis ( Rvb = 95.2 +/- 0.4%); assay type: functional; conditions: read-out: Activity
U-937 [11] = assay: Induction of apoptosis in human U-937 cells assessed as viable cells at 1 uM incubated for 24 hrs by Annexin V FITC/PI staining based flow cytometry analysis ( Rvb = 95.2 +/- 0.4%); assay type: functional; conditions: read-out: Activity
HT-29 [12] = assay: Induction of apoptosis in human HT-29 cells assessed as early apoptotic cells at 1 uM incubated for 24 hrs by Annexin V FITC/PI staining based flow cytometry analysis ( Rvb = 0%); assay type: functional
U-937 [13] = assay: Induction of apoptosis in human U-937 cells assessed as viable cells at 5 uM incubated for 24 hrs by Annexin V FITC/PI staining based flow cytometry analysis ( Rvb = 95.2 +/- 0.4%); assay type: functional; conditions: read-out: Activity
HT-29 [14] = assay: Induction of apoptosis in human HT-29 cells assessed as late apoptotic cells at 5 uM incubated for 24 hrs by Annexin V FITC/PI staining based flow cytometry analysis ( Rvb = 0.7%); assay type: functional
HT-29 [15] = assay: Induction of apoptosis in human HT-29 cells assessed as late apoptotic cells at 1 uM incubated for 24 hrs by Annexin V FITC/PI staining based flow cytometry analysis ( Rvb = 0.7%); assay type: functional
HT-29 [16] = assay: Inhibition of TNFalpha induced nuclear translocation of NF-kappaB in human HT-29 cells at 10 uM pretreated with for 3 hrs followed by TNFalpha addition by Western blotting analysis; assay type: functional, cell-based
U-937 [17] = assay: Induction of apoptosis in human U-937 cells assessed as necrotic cells at 5 uM incubated for 24 hrs by Annexin V FITC/PI staining based flow cytometry analysis ( Rvb = 0.2 +/- 0.1%); assay type: functional
HT-29 [18] = assay: Induction of apoptosis in human HT-29 cells assessed as late apoptotic cells at 10 uM incubated for 24 hrs by Annexin V FITC/PI staining based flow cytometry analysis ( Rvb = 0.7%); assay type: functional
U-937 [19] = assay: Induction of apoptosis in human U-937 cells assessed as early apoptotic cells at 1 uM incubated for 24 hrs by Annexin V FITC/PI staining based flow cytometry analysis ( Rvb = 0.6 +/- 0.1 %); assay type: functional
HT-29 [20] = assay: Induction of apoptosis in human HT-29 cells assessed as necrotic cells at 1 uM incubated for 24 hrs by Annexin V FITC/PI staining based flow cytometry analysis ( Rvb = 0.2%); assay type: functional
U-937 [21] = assay: Induction of apoptosis in human U-937 cells assessed as necrotic cells at 10 uM incubated for 24 hrs by Annexin V FITC/PI staining based flow cytometry analysis( Rvb = 0.2 +/- 0.1%); assay type: functional
HT-29 [22] = assay: (§1) Mucosal healing effect in TNFalpha induced human HT-29 cells assessed as decrease in epithelial permeability by measuring reduced […] FITC-dextran 4 level at 0.1 to 10 uM pretreated for 3 hrs followed by TNFalpha addition and subsequent FD4 addition and measured after 2 hrs by fluorescence based assay; assay type: functional, cell-based; conditions: dose 0.1-10 µM, time 5.0 hrs
HT-29 [23] = assay: as §1, with “at” for “at 0.1 to”, “pretreated with compound and G1” for “pretreated”; assay type: functional, cell-based; conditions: time 5.0 hrs
HT-29 [24] = assay: Induction of apoptosis in human HT-29 cells assessed as necrotic cells at 5 uM incubated for 24 hrs by Annexin V FITC/PI staining based flow cytometry analysis ( Rvb = 0.2%); assay type: functional
HT-29 [25] = assay: Induction of apoptosis in human HT-29 cells assessed as viable cells at 5 uM incubated for 24 hrs by Annexin V FITC/PI staining based flow cytometry analysis ( Rvb = 99 +/- 0.1%); assay type: functional; conditions: read-out: Activity
U-937 [26] = assay: Induction of apoptosis in human U-937 cells assessed as early apoptotic cells at 10 uM incubated for 24 hrs by Annexin V FITC/PI staining based flow cytometry analysis ( Rvb = 0.6 +/- 0.1 %); assay type: functional
U-937 [27] = assay: Induction of apoptosis in human U-937 cells assessed as early apoptotic cells at 5 uM incubated for 24 hrs by Annexin V FITC/PI staining based flow cytometry analysis ( Rvb = 0.6 +/- 0.1 %); assay type: functional
HT-29 [28] = assay: Induction of apoptosis in human HT-29 cells assessed as viable cells at 1 uM incubated for 24 hrs by Annexin V FITC/PI staining based flow cytometry analysis ( Rvb = 99 +/- 0.1%); assay type: functional; conditions: read-out: Activity
U-937 [29] = assay: Induction of apoptosis in human U-937 cells assessed as late apoptotic cells at 10 uM incubated for 24 hrs by Annexin V FITC/PI staining based flow cytometry analysis ( Rvb = 4 +/- 0.2%); assay type: functional
HT-29 [30] = assay: Induction of apoptosis in human HT-29 cells assessed as viable cells at 10 uM incubated for 24 hrs by Annexin V FITC/PI staining based flow cytometry analysis ( Rvb = 99 +/- 0.1%); assay type: functional; conditions: read-out: Activity
Mus musculus [31] = assay: Antiinflammatory activity against DSS-induced chronic colitis in C57BL/6N/Crl mouse model assessed as recovery of body weight at 300 mg/kg, po administered daily 6 days per week for 5 weeks; assay type: functional
Mus musculus [32] = assay: Antiinflammatory activity against DSS-induced chronic colitis in C57BL/6N/Crl mouse model assessed as recovery of colon weight at 300 mg/kg, po administered daily 6 days per week for 5 weeks; assay type: functional
Rattus norvegicus [33] = assay: Antiinflammatory activity against TNBS-induced colitis in Sprague-Dawley rat model assessed as recovery of colon weight at 300 mg/kg, po administered for 5 days; assay type: functional; conditions: time 5 day
Rattus norvegicus [34] = assay: Antiinflammatory activity against TNBS-induced colitis in Sprague-Dawley rat model assessed as recovery of body weight at 300 mg/kg, po administered for 5 days; assay type: functional; conditions: time 5 day

Structure (SMILES): Cc1nc(NC(=O)c2ccccc2Cl)c(C)c(C)c1O
- inhibition at 1 µM (U-937 [1]): 7.9%
- inhibition at 1 µM [2]: 15%

Structure (SMILES): COc1ccccc1C(=O)Nc1nc(C)c(O)c(C)c1C
- inhibition at 1 µM (U-937 [1]): 58%
- inhibition at 1 µM [2]: 44%

Structure (SMILES): COc1ccc(C(=O)Nc2nc(C)c(O)c(C)c2C)c(OC)c1
- inhibition at 1 µM (U-937 [1]): 30.9%
- inhibition at 1 µM [2]: 19.1%

Structure (SMILES): CC(=O)c1ccc2c(c1)[C@@H]1C=CC[C@@H]1[C@H](c1cc3c(cc1Br)OCO3)N2
- Activity (HT-29 [3]): 4.3%
- Activity (HT-29 [4]): 2.9%
- Activity (U-937 [5]): 16.2%
- Activity (HT-29 [6]): 1%
- inhibition (HT-29 [7]): Active
- Activity (U-937 [8]): 28.2%
- Activity (U-937 [9]): 0.6%
- viability at 10 µM (U-937 [10]): 53.2%
- viability at 1 µM (U-937 [11]): 76.2%
- Activity (HT-29 [12]): 1%
- viability at 5 µM (U-937 [13]): 66.6%
- Activity (HT-29 [14]): 27.9%
- Activity (HT-29 [15]): 16.9%
- inhibition (HT-29 [16]): Active
- Activity (U-937 [17]): 0.3%
- Activity (HT-29 [18]): 33.3%
- Activity (U-937 [19]): 7%
- Activity (HT-29 [20]): 1.3%
- Activity (U-937 [21]): 0.4%
- Activity (HT-29 [22]): Active
- Activity (HT-29 [23]): Active
- Activity (HT-29 [24]): 2.7%
- viability at 5 µM (HT-29 [25]): 66.6%
- Activity (U-937 [26]): 7.2%
- Activity (U-937 [27]): 5.5%
- viability at 1 µM (HT-29 [28]): 80.9%
- Activity (U-937 [29]): 39.2%
- viability at 10 µM (HT-29 [30]): 61.4%

Structure (SMILES): Cc1ccc(C(=O)Nc2nc(C)c(O)c(C)c2C)cc1F
- inhibition at 1 µM (U-937 [1]): 68.2%
- inhibition at 1 µM [2]: 59.5%

Structure (SMILES): Nc1ccc(O)c(C(=O)O)c1 [MESALAMINE]
- inhibition at 1 µM (U-937 [1]): 9.9%
- inhibition at 1 µM [2]: 1.7%

Structure (SMILES): Cc1nc(NC(=O)c2sc3cc(Cl)ccc3c2Cl)c(C)c(C)c1O
- inhibition at 1 µM [2]: 9%

Structure (SMILES): O=C(O)c1cc(/N=N/c2ccc(S(=O)(=O)Nc3ccccn3)cc2)ccc1O [SULFASALAZINE]
- Activity (Mus musculus [31]): 22.8%
- Activity (Mus musculus [32]): 66.9%
- Activity (Rattus norvegicus [33]): 78.4%
- Activity (Rattus norvegicus [34]): 58.3%
